This is an account of results in US9068013B2, “Recombinant lectins, binding-site modified lectins and uses thereof” (SMART CELLS, INC., priority 2010, dated 2015).

Test [1] in a line: Gel formation with glycogen (OD490 turbidity). The settings on record: 10 mg/ml rCon A, 10 or 1 mg/ml glycogen, pH 7 BES buffer, 10 minutes room temperature. Here is the method: rCon A synthesised and purified according to Examples 42-44 were tested for their ability to form gels with glycogen. Alpha methyl mannose present in the samples was initially removed as follows. Samples were added to BioSpin 30 columns (Bio-Rad, Hercules, Calif.) that had been previously equilibrated with deionized water. The BioSpin columns were centrifuged for 4 minutes at 1000×g, and the resulting eluent contained rCon A samples that had been substantially desalted and alpha methyl mannose removed. Samples were combined and A280 measurements were obtained. Typically, the A280 measurements correlated with the A280 measurements obtained before removal of alpha methyl mannose.
The following assay was then used to measure gel formation with glycogen. Unmodified Oyster glycogen Type II (Sigma Aldrich, St. Louis, Mo.) was dissolved at 10 mg/ml in pH 7, 200 mM BES buffer (Sigma Aldrich, St. Louis, Mo.). […] The plate was allowed to develop at room temperature for 10 minutes, after which time the turbidity of each plate well was assayed using a commercially available microplate reader (SpectraMAX, Molecular Devices, Mountain View, Calif.) at a wavelength of 490 nm (OD490). […]

The subject of test [2] is fasted normal non-diabetic rats. The test can be described thus: Blood glucose depression profile after subcutaneous injection. It is filed as in vivo, rat (Male Sprague-Dawley). The settings on record: non-diabetic SD rats. Here is the method:
(§1) Blood glucose values were measured using commercially available test strips (Precision Xtra, Abbott Laboratories, Abbott Park, Ill.).
as §1, §1
Blood glucose values were measured using commercially available test strips (Precision Xtra, Abbott Laboratories, Abbott Park, Ill.). In addition, blood from each timepoint was centrifuged at 4 C to collect the serum.

Setting [3] is: subcutaneous, 0.25 ml of 20 U of equivalent insulin/ml.

“SCI-1: recombinant Con A construct, amino acid sequence SEQ ID NO: 1 (wild-type Con A)”: the “gel formation with glycogen” value in test [1] is recorded as “formed gels with glycogen that were comparable to gels formed by native (plant-derived) Con A controls”.

As for “insulin-dextran: comparative insulin-dextran (MW 70K) conjugate made by CNBr coupling, 10% (w/w) insulin”, in test [2] (setting [3]), the “time serum glucose levels remain depressed post injection” value was “at least five” and the “time to reach the glucose nadir (Tnadir)” value is listed as “about 3 hours”.

For “insulin-glycogen: comparative conjugate of insulin with oyster glycogen (Type II) by CNBr coupling, Example 32”, the “glucose lowering compared to the insulin-dextran conjugates” value in test [2] (2.5 equivalent U of insulin/kg subcutaneous) was “lower glucose levels much more rapidly and to a greater extent”.
